Assay results from US20090088412A1, “COMPOSITION FOR TREATING CANCER CELLS AND PREPARATION METHOD THEREOF” (KAOHSIUNG MEDICAL UNIVERSITY, priority 2007, published 2009).
Values after ≈ are worked out from the molar mass of the structure shown.

Legend:
A-549 = experiment: MTT cytotoxicity test, A-549; assay type: cell-based, human; conditions: 72 hours; for IC50 A-549: lung cancer cell line
Description: (§1) The bioactivities of the 25 new withanolide compounds of the present invention are further studied. The bioactivities are measured by examining cytotoxicity tests with 5 human cancer cell lines, including MCF-7 and MDA-MB-231 (which are the breast cancer cell lines), Hep G2 and Hep 3B (which are the liver cancer cell line), and A549 (which is lung cancer cell line). In addition, a normal human lung cell line (MRC-5) is served as the control group. All human cancer cell lines come from the American Type Culture Collection. The respective cell lines are cultured in RPMI-1640 medium with 10% (v/v) fetal calf serum, 100 U/ml penicillin and 100 µg/ml streptomycin, and incubated at 37° C. in 5% CO2 atmosphere.
(§2) In the present invention, the cytotoxicity tests are performed with MTT (3-(4,5-dimethyl-thiazol-2-yl)-2,5-diphenyl tetrazolium bromide) method. The five cancer cell lines and the normal cell line (MRC-5) are firstly incubated in a 96-well culture dish with concentrations of 5,000˜10,000 cells/well. In Day 2, the respective incubated cells are added with the withanolide compounds of the present invention and Doxorubicin and are incubated for additional 72 hours. Afterwards, the incubated cells are examined with the MTT method including steps of dissolving the incubated cells in DMSO, and determining the absorbance of each cell line to each compound by a microplate reader in 550 nm to evaluate the cytotoxicity of each compound to each cell line. […] The IC50 represents the concentration of the compound that is required for 50% inhibition of the cell growth, and Doxorubicin serves as the positive control group.

MCF-7 = experiment: MTT cytotoxicity test, MCF-7; assay type: cell-based, human; conditions: 72 hours; for IC50 MCF-7: breast cancer cell line
Description: as §1, §2

Hep 3B = experiment: MTT cytotoxicity test, Hep 3B; assay type: cell-based, human; conditions: liver cancer cell line, 72 hours
Description: as §1, §2

MDA-MB-231 = experiment: MTT cytotoxicity test, MDA-MB-231; assay type: cell-based, human; conditions: 72 hours; for IC50 MDA-MB-231: breast cancer cell line
Description: as §1, §2

MRC-5 = experiment: MTT cytotoxicity test, normal lung cell line MRC-5; assay type: cell-based; conditions: 72 hours; for IC50 MRC-5: normal human lung cell line
Description: as §1, §2

Hep G2 = experiment: MTT cytotoxicity test, Hep G2; assay type: cell-based, human; conditions: 72 hours; for IC50 Hep G2: liver cancer cell line
Description: as §1, §2

Compound	IC50 A-549 (A-549) [µg/mL]	IC50 MCF-7 (MCF-7) [µg/mL]	IC50 Hep 3B (Hep 3B) [µg/mL]	IC50 MDA-MB-231 (MDA-MB-231) [µg/mL]	IC50 MRC-5 (MRC-5) [µg/mL]	IC50 Hep G2 (Hep G2) [µg/mL]	IC50 (A-549; Homo sapiens, A549, lung cancer cell line) [µg/mL]	IC50 (MCF-7; Homo sapiens, MCF7, breast cancer cell line) [µg/mL]	IC50 (Hep 3B; Homo sapiens, Hep3B) [µg/mL]	IC50 (MDA-MB-231; Homo sapiens, MDA-MB-231, breast cancer cell line) [µg/mL]	IC50 (MRC-5; MRC5, normal human lung cell line) [µg/mL]	IC50 (Hep G2; Homo sapiens, HepG2, liver cancer cell line) [µg/mL]
CC1=C(CO)C(=O)O[C@@H]([C@@H](C)[C@H]2CC[C@H]3[C@@H]4C[C@H]5O[C@]56[C@@H](O)C=CC(=O)[C@]6(C)[C@H]4CC[C@]23C)C1 [withaferin A, reference compound]	0.02 (≈ 0.0425 µM)	0.05 (≈ 0.106 µM)	0.06 (≈ 0.127 µM)	0.02 (≈ 0.0425 µM)	0.07 (≈ 0.149 µM)	0.06 (≈ 0.127 µM)	–	–	–	–	–	–
CC1=C(C)C(=O)O[C@@H]([C@@H](C)[C@@]2(O)CC[C@H]3[C@@H]4C[C@H]5O[C@]56[C@@H](O)C=CC(=O)[C@]6(C)[C@H]4CC[C@@]32C)C1 [Compound 14, Tubocapsanolide F]	0.88 (≈ 1.87 µM)	1.98 (≈ 4.21 µM)	0.80 (≈ 1.7 µM)	0.99 (≈ 2.1 µM)	0.81 (≈ 1.72 µM)	0.64 (≈ 1.36 µM)	–	–	–	–	–	–
COC1CC(=O)[C@]2(C)[C@H]3CC[C@]4(C)C([C@@](C)(O)[C@H]5CC(C)=C(C)C(=O)O5)=CC[C@H]4[C@@H]3C[C@H]3O[C@]32[C@H]1O (stereo partly shown) [Compound 18, Tubocapsanolide H]	7.50 (≈ 15 µM)	9.27 (≈ 18.5 µM)	2.65 (≈ 5.29 µM)	4.82 (≈ 9.63 µM)	15.23 (≈ 30.4 µM)	3.67 (≈ 7.33 µM)	–	–	–	–	–	–
COC1CC(=O)[C@]2(C)[C@H]3CC[C@@]4(C)[C@@H](CC[C@]4(O)[C@@](C)(O)[C@H]4CC(C)=C(C)C(=O)O4)[C@@H]3C[C@H]3O[C@]32[C@H]1O (stereo partly shown) [Compound 17, 20-Hydroxytubocapsanolide G]	2.67 (≈ 5.15 µM)	17.25 (≈ 33.3 µM)	12.30 (≈ 23.7 µM)	4.44 (≈ 8.56 µM)	7.20 (≈ 13.9 µM)	2.51 (≈ 4.84 µM)	–	–	–	–	–	–
C[C@@]12CC([C@@]3(O)CC[C@H]4[C@@H]5C[C@H](O)[C@]6(O)[C@@H](O)C=CC(=O)[C@]6(C)[C@H]5CC[C@@]43C)[C@@H](C1)OC(=O)[C@]2(C)O (stereo partly shown) [Compound 20, Anomanolide B]	1.49 (≈ 2.95 µM)	4.84 (≈ 9.59 µM)	3.17 (≈ 6.28 µM)	0.70 (≈ 1.39 µM)	0.20 (≈ 0.396 µM)	0.97 (≈ 1.92 µM)	–	–	–	–	–	–
C[C@@]12CC([C@@]3(O)CC[C@H]4[C@@H]5C[C@H]6O[C@]67[C@@H](O)C=CC(=O)[C@]7(C)[C@H]5CC[C@@]43C)[C@@H](C1)OC(=O)[C@]2(C)O (stereo partly shown) [Compound 19, Anomanolide A]	1.01 (≈ 2.08 µM)	2.31 (≈ 4.75 µM)	3.63 (≈ 7.46 µM)	1.37 (≈ 2.82 µM)	1.91 (≈ 3.93 µM)	3.11 (≈ 6.39 µM)	–	–	–	–	–	–
CC1=C(C)[C@H](O)[C@H]([C@@H](C)[C@@]23O[C@@H]2C[C@H]2[C@@H]4C[C@H]5O[C@]56[C@@H](O)C=CC(=O)[C@]6(C)[C@H]4CC[C@@]23C)OC1=O [Compound 10, 23-Hydroxytubocapsanolide A]	0.79 (≈ 1.63 µM)	2.05 (≈ 4.23 µM)	0.49 (≈ 1.01 µM)	1.19 (≈ 2.46 µM)	0.90 (≈ 1.86 µM)	0.44 (≈ 0.908 µM)	–	–	–	–	–	–
CC1=C(C)C(=O)O[C@@H]([C@@H](C)[C@@]23O[C@@H]2C[C@H]2[C@@H]4C[C@H]5O[C@]56[C@@H](O)C=CC(=O)[C@]6(C)[C@H]4CC[C@@]23C)C1 [Compound 8, Tubocapsanolide A]	0.47 (≈ 1 µM)	1.47 (≈ 3.14 µM)	0.42 (≈ 0.896 µM)	0.22 (≈ 0.469 µM)	0.73 (≈ 1.56 µM)	0.86 (≈ 1.84 µM)	–	–	–	–	–	–
CC1=C(C)C(=O)O[C@@H]([C@@H](C)[C@@]2(C)C3=C(C[C@H]2O)[C@@H]2C[C@H](Cl)[C@]4(O)[C@@H](O)C=CC(=O)[C@]4(C)[C@H]2CC3)C1 [Compound 7, Tubocapsenolide G]	19.94 (≈ 39.5 µM)	>20	>20	>20	–	19.12 (≈ 37.9 µM)	–	–	–	–	–	–
Tubocapsenolide D [Compound 4]	4.24	6.77	2.30	6.55	4.24	4.57	–	–	–	–	–	–
CC1=C(C)C(=O)O[C@@H]([C@](C)(O)[C@@]23O[C@@H]2C[C@H]2[C@@H]4C[C@H]5O[C@]56[C@@H](O)C=CC(=O)[C@]6(C)[C@H]4CC[C@@]23C)C1 [Compound 9, 20-Hydroxytubocapsanolide A]	1.42 (≈ 2.93 µM)	1.77 (≈ 3.65 µM)	0.99 (≈ 2.04 µM)	0.99 (≈ 2.04 µM)	1.36 (≈ 2.81 µM)	0.73 (≈ 1.51 µM)	–	–	–	–	–	–
C[C@@]12CC([C@@]3(O)[C@H](O)C[C@H]4[C@@H]5C[C@H](Cl)[C@]6(O)[C@@H](O)C=CC(=O)[C@]6(C)[C@H]5CC[C@@]43C)[C@@H](C1)OC(=O)[C@]2(C)O (stereo partly shown) [Compound 22, Anomanolide D]	>20	>20	19.03 (≈ 35.3 µM)	>20	–	>20	–	–	–	–	–	–
COc1cccc2c1C(=O)c1c(O)c3c(c(O)c1C2=O)C[C@@](O)(C(=O)CO)C[C@@H]3O[C@H]1C[C@H](N)[C@H](O)[C@H](C)O1 [doxorubicin, reference compound]	–	–	–	–	–	–	0.42 (≈ 0.773 µM)	0.34 (≈ 0.626 µM)	0.45 (≈ 0.828 µM)	0.19 (≈ 0.35 µM)	0.77 (≈ 1.42 µM)	0.46 (≈ 0.846 µM)
